According to patent US5312816A, “Method of combatting osteoporosis in mammalian subjects, utilizing organic boron compounds” (priority 1993, dated 1994):

Experiments:
Cathepsin = target: T1, Cathepsin (Rattus norvegicus, UniProt P24268); experiment: Rat PMNs cathepsin activity; assay type: cell-based; details: pH 5; 5 × 10^-6 M, N=6; read-out: Rat PMNs Cathep.
T1 construct: azocasein assay pH 5.0
Description: (§1) 2. PMNs-polymorphonuclear neutrophils-rat peritoneal cavity 0.5% oyster glycogen.
(§2) 2. Acid Cathepsin D -azocasein-pH 5.0, hydrolytic azo-peptide produce 366 nm.

cAMP = experiment: PMNs cAMP levels, Gilman's radioimmune assay; assay type: cell-based, rat; details: 5 × 10^-6 M, N=6
Description: as §1
cAMP levels Gilman's radioimmune assay. ^3 H(G)Cyclic-3', 5'-adenosine monophosphate.

Cathepsin D [1] = target: T2, Cathepsin D (Mus musculus, UniProt P18242); experiment: Mouse hepatic lysosomal cathepsin D activity; assay type: biochemical; details: pH 5, read-out: Mouse Liver Cathep.
T2 construct: azocasein assay pH 5.0
T2 sequence (P18242 65-410): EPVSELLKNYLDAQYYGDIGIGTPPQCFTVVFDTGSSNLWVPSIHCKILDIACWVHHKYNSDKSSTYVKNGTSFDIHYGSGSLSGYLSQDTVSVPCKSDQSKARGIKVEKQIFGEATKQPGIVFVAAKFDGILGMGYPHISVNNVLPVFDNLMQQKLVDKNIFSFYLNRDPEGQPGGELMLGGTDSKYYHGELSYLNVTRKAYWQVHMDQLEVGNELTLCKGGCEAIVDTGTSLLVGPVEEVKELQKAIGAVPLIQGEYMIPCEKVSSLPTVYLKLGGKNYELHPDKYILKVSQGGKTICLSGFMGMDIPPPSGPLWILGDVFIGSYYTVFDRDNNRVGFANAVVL
Description: (§3) 1. Cf1 male mouse hepatic 10% homogenates in 0.25M sucrose+0.001MEDTA,pH 7.2.
(§4) Lysosomal Enzymes - free and total [triton X-100].
as §2
Cathepsin azo casein activity -

in vivo = details: mouse, Table 1, N=6
Protocol: Amine borane compounds (0 to 100 mg/kg) were administered to CF1 male mice as a single injection with six mice for each dosage. Mice were weighed daily and the number of deaths was recorded each day for a 14 day period. The LD50 value was determined by the procedure of S.C. Gad and C.S. Weil, "Statistics for Toxicologists" in Principles and Methods of Toxicology, A.W. Hayes, Ed., 2nd Edition, P 435-483 Raven Press, New York 1982.

Acid phosphatase [2] = experiment: Rat PMNs acid phosphatase activity; assay type: cell-based; details: 5 × 10^-6 M, N=6; 5 µM
Description: as §1
(§5) 1. Acid phosphatase -beta glycerol-3-phosphate, pH 5.0, released IP 720 nm.

Sprague Dawley male rats = experiment: Chronic adjuvant arthritis screen, Mycobacterium butyricum; assay type: in vivo; details: Table 1; Indomethacin 10 mg/kg
Cf1 male mice [3] = experiment: Anti-inflammatory screen, Winter's test, 2% carrageenan hind foot; assay type: in vivo; details: Table 1; drugs 8 or 10 mg/kg I.P. 2X; Indomethacin 10 mg/kg
Protocol: Anti-inflammatory Screen- Cf1 - male mice-Winter's Test 2% carrageenan S.C. plantar surface of hind foot, drugs administered @8 or 10 mg/kg I.P. 2X
Winter, C.A., et al, Proc. Soc.

Acid phosphatase [4] = experiment: Mouse hepatic lysosomal acid phosphatase activity; assay type: biochemical; details: 5 × 10^-6 M, N=6; 5 µM
Description: as §3, §4, §5
Acid phosphatase activity -

Cf1 male mice [5] = experiment: Writhing reflex, 0.6% acetic acid; assay type: in vivo; details: Table 1; Indomethacin 10 mg/kg
Protocol: Writhing reflex- Cf1 -male mice- 0.6% acetic acid I.P. drugs administered @20 mg/kg/ I.P. 20 min. later - the # of stretches/10 min.
Hendershot, L.C., et al, J.

Acid phosphatase [6] = experiment: Human osteoporosis fibroblasts acid phosphatase activity; assay type: cell-based; details: Table X; human osteoporosis fibroblasts; read-out: Acid Phosphatase IC50
Description: as §5

Elastase [7] = experiment: Mouse macrophage elastase activity; assay type: cell-based; details: Table VIII; mouse macrophages, 60 min incubation; read-out: Elastase IC50
Aryl sulphatase [8] = experiment: Mouse macrophage aryl sulphatase activity; assay type: cell-based; details: Table VII; mouse macrophage cultured cells, 60 min incubation; read-out: Aryl Sulphatase IC50
Trypsin [9] = experiment: Human osteoporosis fibroblasts trypsin (BAEE) activity; assay type: cell-based; details: Table XI; human osteoporosis fibroblasts, 60 min incubation; read-out: Trypsin BAEE IC50
Description: 1. Trypsin- N-benzoyl-L-arginine ethyl ester pH 8.0, hydrolytic product 253 nm.

[10] = tested on: Prostaglandin cyclooxygenase; experiment: Mouse macrophage prostaglandin cyclooxygenase activity; assay type: cell-based; details: Table VIII; mouse macrophages, 60 min incubation; read-out: Prostaglandin Cyclooxygenase IC50
Description: 3. Mouse macrophages J774A.1 BALB/c
Prostaglandin synthetase purified beef seminal vesicle ^3 H arachidonic acid (86.2 Ci/mmol), tlc separation.

Sprague Dawley Rats = experiment: Anti-inflammatory activity in Sprague Dawley rats; assay type: in vivo; details: Table IV; 8 mg/kg I.P.
5'-lipoxygenase = target: T3, 5'-lipoxygenase (Mus musculus, UniProt P48999); experiment: Mouse hepatic 5'-lipoxygenase activity; assay type: biochemical; details: Table VI; mouse hepatic, 60 min incubation; read-out: 5'-lipoxygenase IC50
T3 construct: Cf1 male mouse hepatic 10% homogenates; from tissue; host or cells: CF1 male mouse liver, 10% homogenate
T3 sequence (P48999 1-674): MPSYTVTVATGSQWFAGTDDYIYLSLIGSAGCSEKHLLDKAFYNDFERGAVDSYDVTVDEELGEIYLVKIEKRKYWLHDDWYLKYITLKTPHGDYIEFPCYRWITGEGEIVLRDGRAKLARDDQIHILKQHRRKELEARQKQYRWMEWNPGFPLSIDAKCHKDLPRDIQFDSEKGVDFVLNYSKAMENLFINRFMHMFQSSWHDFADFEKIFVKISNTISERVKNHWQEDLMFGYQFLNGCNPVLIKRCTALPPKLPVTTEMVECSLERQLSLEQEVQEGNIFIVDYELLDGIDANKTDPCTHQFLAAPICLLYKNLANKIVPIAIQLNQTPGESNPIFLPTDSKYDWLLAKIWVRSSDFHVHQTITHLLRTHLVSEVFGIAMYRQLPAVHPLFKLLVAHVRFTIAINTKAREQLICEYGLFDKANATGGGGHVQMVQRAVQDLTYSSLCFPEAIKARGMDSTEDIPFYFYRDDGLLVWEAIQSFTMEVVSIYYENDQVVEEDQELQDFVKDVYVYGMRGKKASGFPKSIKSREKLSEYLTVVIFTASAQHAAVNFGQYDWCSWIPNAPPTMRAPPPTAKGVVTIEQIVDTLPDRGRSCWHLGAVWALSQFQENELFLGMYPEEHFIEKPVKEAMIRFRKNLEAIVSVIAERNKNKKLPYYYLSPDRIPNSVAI
Description: as §3
5'-lipoxygenase Mylari, B.L., et al, J. Med.

Acid phosphatase [11] = experiment: Mouse macrophage acid phosphatase activity; assay type: cell-based; details: Table VII; mouse macrophage cultured cells, 60 min incubation; read-out: Acid Phosphatase IC50
Elastase [12] = experiment: Human osteoporosis fibroblasts elastase activity; assay type: cell-based; details: Table XI; human osteoporosis fibroblasts, 60 min incubation; read-out: Elastase IC50
Description: 2. Elastase- N-succinyl-L-alanyl-L-alanine-p-nitroanilide, pH 8.0, p-nitro anilide 410 nm.

Cf1 male mice [13] = experiment: Writhing reflex, 0.6% acetic acid; assay type: in vivo; details: Mus musculus, ip; Table IV; 8 mg/kg I.P.
[14] = tested on: Prostaglandin cyclooxygenase; experiment: Human osteoporosis fibroblasts prostaglandin cyclooxygenase activity; assay type: cell-based; details: Table XI, 60 min incubation, read-out: Prostaglandin Cyclooxygense IC50
Aryl sulphatase [15] = experiment: Human osteoporosis fibroblasts aryl sulphatase activity; assay type: cell-based; details: Table X; human osteoporosis fibroblasts; read-out: Aryl Sulphatase IC50
Description: 3. Aryl sulphatase- p-nitrocatechol sulfate, pH
5. 8 p-nitro-catechol product 510 nm.

Cathepsin D [16] = target: T4, Cathepsin D (Homo sapiens, UniProt P07339); experiment: Human osteoporosis fibroblasts cathepsin D (azo-casein) activity; assay type: cell-based; details: Table X; human osteoporosis fibroblasts, DMEM +10% FCS + P/S; read-out: Cathepsin D IC50
T4 construct: azocasein assay pH 5.0
T4 sequence (P07339 65-412): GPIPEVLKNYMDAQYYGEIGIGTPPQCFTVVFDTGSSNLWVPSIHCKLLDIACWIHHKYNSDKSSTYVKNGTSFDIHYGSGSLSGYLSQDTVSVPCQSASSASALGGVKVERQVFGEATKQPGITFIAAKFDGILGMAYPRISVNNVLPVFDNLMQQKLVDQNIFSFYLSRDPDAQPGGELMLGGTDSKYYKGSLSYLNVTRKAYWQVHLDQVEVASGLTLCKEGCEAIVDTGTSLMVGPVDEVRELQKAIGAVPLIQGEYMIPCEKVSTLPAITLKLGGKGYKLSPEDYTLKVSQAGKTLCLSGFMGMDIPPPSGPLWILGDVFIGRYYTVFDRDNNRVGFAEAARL
Description: Osteoporosis Human Fibroblast-CRL-1140, Be SA1

Trypsin [17] = experiment: Mouse macrophage trypsin (BAEE) activity; assay type: cell-based; details: Table VIII; mouse macrophages, 60 min incubation; read-out: Trypsin BAEE IC50

T1 sequence (P24268 65-407): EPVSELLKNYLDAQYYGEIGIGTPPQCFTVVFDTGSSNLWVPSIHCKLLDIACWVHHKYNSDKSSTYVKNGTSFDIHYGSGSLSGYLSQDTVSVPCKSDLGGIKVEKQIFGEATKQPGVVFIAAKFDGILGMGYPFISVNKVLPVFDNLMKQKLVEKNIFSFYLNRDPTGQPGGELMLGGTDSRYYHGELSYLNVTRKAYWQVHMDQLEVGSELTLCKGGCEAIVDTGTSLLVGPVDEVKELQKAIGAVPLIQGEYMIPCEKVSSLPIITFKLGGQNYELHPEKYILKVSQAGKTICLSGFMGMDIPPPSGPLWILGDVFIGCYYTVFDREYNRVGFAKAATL

## COc1ccc2c(c1)c(CC(=O)O)c(C)n2C(=O)c1ccc(Cl)cc1 [Indomethacin, reference compound]
Cathepsin
  activity at 5 µM: 100%
cAMP
  PMNs cAMP: 80 % Control
Cathepsin D [1]
  activity at 5 µM: 67%
In vivo
  LD50 at 336 h: 28 mg/kg
Acid phosphatase [2]
  Rat PMNs Acid Phoph.: 100 + 2 % Control
Sprague Dawley male rats
  Anti-arthritic: 27 % Control
Cf1 male mice [3]
  Anti-inflammatory: 22 % Control
Acid phosphatase [4]
  Mouse Liver Acid Phosph.: 86 + 4 % Control
Cf1 male mice [5]
  Writhing: 43 % Control

## CCNC(=O)[BH2-][NH+](C)C [Compound 9, Dimethylamine-N-ethylcarbamoylborane]
Acid phosphatase [6]
  IC50: 8.6 µM
Elastase [7]
  IC50: 3.29 µM
Aryl sulphatase [8]
  IC50: 9.27 µM
Trypsin [9]
  IC50: 4.36 µM
[10]
  IC50: 5.19 µM
Sprague Dawley Rats
  Anti-Inflammatory Activity Sprague Dawley Rats: 41 % Control
5'-lipoxygenase
  IC50: 43.5 µM
Acid phosphatase [11]
  IC50: 1.12 µM
Elastase [12]
  IC50: 0.98 µM
Cf1 male mice [13]
  response vs control in vivo at 8 mg/kg: 26.9%
[14]
  IC50: 8.05 µM
Aryl sulphatase [15]
  IC50: 7.63 µM
Cathepsin D [16]
  IC50: 1.93 µM
Trypsin [17]
  IC50: 2.03 µM
